Earlier results as cited in patent US20090253620A1, “METHODS AND COMPOSITIONS FOR TREATING GASTROINTESTINAL RADIOSENSITITIVITY IN A SUBJECT” (WASHINGTON UNIVERSITY IN ST. LOUIS, priority 2005, published 2009).

Assays:
[1] = test system: mice; conditions: CONV-R wt mice
[2] = test system: intestinal mesenchymal cells; conditions: CONV-R wt mice

Substance: Fgf-2: fibroblast growth factor-2
- TBI-associated mortality [1]: decreases
- TBI-induced intestinal mesenchymal apoptosis [2]: attenuates
